In one test the target is T1, KDR (Homo sapiens, UniProt P35968).
T1 construct: GST-KDR (aa807-1356); GST (N); purchased ProQuinase, Freiburg; host or cells: baculovirus infected insect cells Sf9
Kind of test: RTK ELISA, recombinant kinase domain, KDR. The test is classed as biochemical. The conditions noted are these: GST-KDR (aa807-1356) expressed in baculovirus infected insect cells. The method, then:
(§1) Follwing IC50 values were determined in the RTK ELISA using recombinant kinase domains of receptor tyrosine kinases which were expressed in baculovirus infected insect cells.
(§2) Receptor Tyrosine Kinase Assay
(§3) The following in vitro assays are used to determine the ability of different compounds to inhibit the transfer of phosphate groups onto tyrosine residues of downstream substrates. The level of phosphorylation is measured by a monoclonal antibody which is specific for phosphorylated tyrosine residues in an enzyme-linked immunosorbent assay (ELISA).
(§4) The following recombinant kinases were expressed in baculovirus infected insect cells Sf9 and purchased from ProQuinase, Freiburg:
(§5) If not otherwise indicated all steps are performed at room temperature.
(§6) 1.) Coat wells of ELISA plate with […] Poly-Glu-Tyr 4:1 in 100 μl/well PBS buffer (137 mM NaCl, 3 mM KCl, 1.5 mM KH2PO4, 8.2 mM Na2HPO4) overnight at 4° C.
(§7) 2.) Wash 2 times for 5 min each with PBS+0.05% Tween20 […]
(§8) a) Add 5-30 ng/well kinase in 50 μl/well kinase buffer (100 mM HEPES pH 7.4, 100 mM NaCl, 0.1 mM Na3VO4) b) Add 25 μl/well compound (50 and 5 μM) in 5% DMSO c) Add 25 μl/well 100 μM ATP in 40 mM MnCl2
(§9) 4.) Wash 3 times for 5 min each with PBS+0.05% Tween20
(§10) 5.) Add anti phosphotyrosin antibody/HRP 1:10.000 in 100 μl/well PBS+0.05% Tween+0.1 BSA, incubate for 1 h
(§11) 6.) Wash 3 times for 5 min each with PBS+0.05% Tween20
(§12) 7.) Chemoluminescence reaction: a.) Premix 25 μl/well BM CLS Solution 1 with 0.25 μl/well BM CLS Solution 2 b.) Preincubate for 15 min […]
(§13) d.) Add 50 μl/well substrate solution to microtiter wells e.) Incubate for at least 1 min
(§14) 8.) Detect chemoluminescence signals in Tecan Genios reader

The next test has as its target T2, Tie-2 (Homo sapiens, UniProt Q02763).
T2 construct: GST-Tie2/Tek (aa 771-1124); GST (N); purchased ProQuinase, Freiburg; host or cells: baculovirus infected insect cells Sf9
Put plainly: RTK ELISA, recombinant kinase domain, Tie-2. The conditions noted are these: GST-Tie2/Tek (aa 771-1124) expressed in baculovirus infected insect cells. The test is classed as biochemical. The method, then: as §1, §2, §3, §4, §5, §6, §7, §8, §9, §10, §11, §12, §13, §14

Another test deals with T3, c-Met (Homo sapiens, UniProt P08581).
T3 construct: GST-cMet (aa956-1390); GST (N); purchased ProQuinase, Freiburg; host or cells: baculovirus infected insect cells Sf9
Kind of test: RTK ELISA, recombinant kinase domain, c-Met. The test is classed as biochemical. Particulars: GST-cMet (aa956-1390) expressed in baculovirus infected insect cells. The method, then:
as §1, §2, §3, §4, §5, §6, §7, §8, §9, §10, §11, §12, §13, §14

A further test concerns tumor metastasis. Particulars: delivered at the time of surgical excision of primary tumors, mouse model; cited from earlier work.

Where a name gives a salt, the structure may show the parent alone.

T2 sequence (Q02763 771-1124): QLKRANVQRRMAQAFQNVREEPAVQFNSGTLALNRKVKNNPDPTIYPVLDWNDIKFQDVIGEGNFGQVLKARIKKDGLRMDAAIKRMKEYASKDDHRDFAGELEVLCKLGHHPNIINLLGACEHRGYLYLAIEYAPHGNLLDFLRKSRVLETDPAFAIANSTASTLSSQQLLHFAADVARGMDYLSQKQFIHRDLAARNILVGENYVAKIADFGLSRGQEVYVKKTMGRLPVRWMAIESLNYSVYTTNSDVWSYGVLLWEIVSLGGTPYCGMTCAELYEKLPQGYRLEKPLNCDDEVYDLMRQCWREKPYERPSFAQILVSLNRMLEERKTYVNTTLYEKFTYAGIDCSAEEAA
T3 sequence (P08581 956-1390): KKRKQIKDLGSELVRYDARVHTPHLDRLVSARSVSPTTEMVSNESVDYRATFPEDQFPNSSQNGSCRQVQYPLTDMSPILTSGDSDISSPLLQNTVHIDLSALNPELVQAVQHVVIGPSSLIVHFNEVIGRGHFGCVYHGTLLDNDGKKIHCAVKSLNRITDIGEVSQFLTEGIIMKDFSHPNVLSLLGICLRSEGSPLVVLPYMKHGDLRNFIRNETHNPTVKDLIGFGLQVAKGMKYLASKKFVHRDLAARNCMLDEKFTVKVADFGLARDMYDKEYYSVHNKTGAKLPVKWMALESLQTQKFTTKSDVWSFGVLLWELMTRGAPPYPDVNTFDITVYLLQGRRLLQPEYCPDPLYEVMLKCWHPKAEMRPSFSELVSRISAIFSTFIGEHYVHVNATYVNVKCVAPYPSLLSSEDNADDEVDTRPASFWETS
T1 sequence (P35968 807-1356): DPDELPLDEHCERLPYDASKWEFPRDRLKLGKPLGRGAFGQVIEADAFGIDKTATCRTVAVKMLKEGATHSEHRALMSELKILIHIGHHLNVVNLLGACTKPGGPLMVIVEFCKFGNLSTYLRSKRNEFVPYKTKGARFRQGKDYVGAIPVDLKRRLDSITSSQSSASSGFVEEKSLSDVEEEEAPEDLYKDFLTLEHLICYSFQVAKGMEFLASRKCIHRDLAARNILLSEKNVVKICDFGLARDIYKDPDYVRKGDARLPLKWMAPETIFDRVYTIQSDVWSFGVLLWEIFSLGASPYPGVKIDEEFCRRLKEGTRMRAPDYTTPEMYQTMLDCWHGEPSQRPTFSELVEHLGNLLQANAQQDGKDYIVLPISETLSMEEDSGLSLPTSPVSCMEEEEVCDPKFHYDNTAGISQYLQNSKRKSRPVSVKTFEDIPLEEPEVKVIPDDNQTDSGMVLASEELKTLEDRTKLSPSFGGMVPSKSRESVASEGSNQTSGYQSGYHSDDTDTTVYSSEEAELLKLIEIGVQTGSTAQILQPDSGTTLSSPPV

On to `CNc1nc(-c2cnn(-c3ccccc3)c2C)cs1` [Number 34, methyl-[4-(5-methyl-1-phenyl-1H-pyrazol-4-yl)-thiazol-2-yl]-amine Hydrochloride], for which the IC50 on KDR was 1.5 µM; at Tie-2 it was 1.5 µM; at c-Met, more than 50 µM.
With `CN(c1ccccc1)c1nc(-c2ccc(N3CCCC3)cc2)cs1` [Number 9, methyl-phenyl-[4-(4-pyrrolidin-1-yl-phenyl)-thiazol-2-yl]-amine Hydrobromide], the values for the IC50 on KDR, at Tie-2 and at c-Met were more than 25 µM, 2.5 µM and more than 25 µM, respectively.
Consider `CCN(CC)c1ccc(-c2coc(N)n2)cc1` [Number 24, 4-(4-diethylamino-phenyl)-oxazol-2-ylamine Hydrobromide], for which the IC50 is 1.5 µM on KDR, 5 µM at Tie-2 and more than 50 µM on c-Met.
As for `c1cncc(Nc2nccs2)c1` [Number 4, pyridin-3-yl-thiazol-2-yl-amine Hydrochloride], the results for the IC50 on KDR, on Tie-2 and on c-Met were 5 µM, more than 50 µM and more than 25 µM, respectively.

B1: Ad-ExTek: a soluble adenoviral expressed extracellular domain of Tie-2 (protein, UniProt Q02763 23-748, looked up)
extracellular domain: AMDLILINSLPLVSDAETSLTCIASGWRPHEPITIGRDFEALMNQHQDPLEVTQDVTREWAKKVVWKREKASKINGAYFCEGRVRGEAIRIRTMKMRQQASFLPATLTMTVDKGDNVNISFKKVLIKEEDAVIYKNGSFIHSVPRHEVPDILEVHLPHAQPQDAGVYSARYIGGNLFTSAFTRLIVRRCEAQKWGPECNHLCTACMNNGVCHEDTGECICPPGFMGRTCEKACELHTFGRTCKERCSGQEGCKSYVFCLPDPYGCSCATGWKGLQCNEACHPGFYGPDCKLRCSCNNGEMCDRFQGCLCSPGWQGLQCEREGIQRMTPKIVDLPDHIEVNSGKFNPICKASGWPLPTNEEMTLVKPDGTVLHPKDFNHTDHFSVAIFTIHRILPPDSGVWVCSVNTVAGMVEKPFNISVKVLPKPLNAPNVIDTGHNFAVINISSEPYFGDGPIKSKKLLYKPVNHYEAWQHIQVTNEIVTLNYLEPRTEYELCVQLVRRGEGGEGHPGPVRRFTTASIGLPPPRGLNLLPKSQTTLNLTWQPIFPSSEDDFYVEVERRSVQKSDQQNIKVPGNLTSVLLNNLHPREQYVVRARVNTKAQGEWSEDLTAWTLSDILPPQPENIKISNITHSSAVISWTILDGYSISSITIRYKVQGKNEDQHVDVKIKNATITQYQLKGLEPETAYQVDIFAENNIGSSNPAFSHELVTLPESQAPADLGGGKMLL
modifications: extracellular domain
Turning to B1, the tumor metastasis result in the test on tumor metastasis is recorded as “inhibited tumor metastasis”.

These data come from patent US20030158199A1, “Novel compounds for inhibition of Tie-2” (KYLIX, B.V., priority 2002, published 2003).
